Measured values: paper PMC8903829 (eLife, 2022)
Values joined by “and” are separate entries in the source; they are usually repeats but may differ in a detail not shown here. Identical values can stand only once. Like-named read-outs stand apart in the source and are kept apart here.

What was measured:
[1] = system: wild-type Sprague Dawley rats; experiment: DC-Maximal electroshock seizure assay (DC-MES); format: in vivo, rat; conditions: for WT rat DC-MES, fraction of animals seizing: sheet Figure 5G, 5H, 5I (rats)
Experimental: (§1) Phenytoin was formulated in physiologic saline and was administered intraperitoneally (i.p.) using a 25-gauge needle at a dose volume of 10 mL/kg. All compounds were administered 2 hr prior to electrical seizure induction for all seizure models employed in this study.
(§2) The maximal electroshock seizure (MES) assay has been extensively used in the search for anticonvulsant substances ([Löscher et al., 1991]; [Piredda et al., 1985]; [White et al., 1995]). The MES assay is sensitive to nonselective NaV inhibitors. It is considered a model for generalized tonic-clonic (GTC) seizures and provides an assessment of seizure spread. Briefly, an electroshock of direct current (DC) was delivered by corneal electrodes (Electro Convulsive Therapy Unit 57,800 from Ugo Basile). The parameters of stimulation were different between mice and rats. In CF1 mice aged 9–12 weeks, a direct current of 50 mA (60 Hz) was delivered for 0.2 s (pulse width of 0.5ms), whereas in Sprague Dawley (SD) rats aged 5–6 weeks, a direct current of 150 mA (60 Hz) was delivered for 0.3 s (pulse width of 0.5ms). Immediately prior to the electroshock, the animals’ eyes were anesthetized with a drop of Alcaine (0.5% proparacaine hydrochloride).
(§3) An animal was considered protected in the assay in the absence of a GTC with hindlimb extension and is then scored ‘0’. An animal displaying GTC with hindlimb extension was considered not protected and is then scored ‘1’. The experimenter scoring the seizure behavior was blinded to the treatment.

[2] = molecular target: T1, hNaV1.2 (Homo sapiens, UniProt Q99250); experiment: Qube 384 automated patch-clamp, inactivated-state inhibition; format: cell-based
T1 construct: expression vector containing the full-length cDNA coding for specific human and mouse sodium channel α-subunit; expressed in transfected cells
T1 sequence (Q99250 whole entry): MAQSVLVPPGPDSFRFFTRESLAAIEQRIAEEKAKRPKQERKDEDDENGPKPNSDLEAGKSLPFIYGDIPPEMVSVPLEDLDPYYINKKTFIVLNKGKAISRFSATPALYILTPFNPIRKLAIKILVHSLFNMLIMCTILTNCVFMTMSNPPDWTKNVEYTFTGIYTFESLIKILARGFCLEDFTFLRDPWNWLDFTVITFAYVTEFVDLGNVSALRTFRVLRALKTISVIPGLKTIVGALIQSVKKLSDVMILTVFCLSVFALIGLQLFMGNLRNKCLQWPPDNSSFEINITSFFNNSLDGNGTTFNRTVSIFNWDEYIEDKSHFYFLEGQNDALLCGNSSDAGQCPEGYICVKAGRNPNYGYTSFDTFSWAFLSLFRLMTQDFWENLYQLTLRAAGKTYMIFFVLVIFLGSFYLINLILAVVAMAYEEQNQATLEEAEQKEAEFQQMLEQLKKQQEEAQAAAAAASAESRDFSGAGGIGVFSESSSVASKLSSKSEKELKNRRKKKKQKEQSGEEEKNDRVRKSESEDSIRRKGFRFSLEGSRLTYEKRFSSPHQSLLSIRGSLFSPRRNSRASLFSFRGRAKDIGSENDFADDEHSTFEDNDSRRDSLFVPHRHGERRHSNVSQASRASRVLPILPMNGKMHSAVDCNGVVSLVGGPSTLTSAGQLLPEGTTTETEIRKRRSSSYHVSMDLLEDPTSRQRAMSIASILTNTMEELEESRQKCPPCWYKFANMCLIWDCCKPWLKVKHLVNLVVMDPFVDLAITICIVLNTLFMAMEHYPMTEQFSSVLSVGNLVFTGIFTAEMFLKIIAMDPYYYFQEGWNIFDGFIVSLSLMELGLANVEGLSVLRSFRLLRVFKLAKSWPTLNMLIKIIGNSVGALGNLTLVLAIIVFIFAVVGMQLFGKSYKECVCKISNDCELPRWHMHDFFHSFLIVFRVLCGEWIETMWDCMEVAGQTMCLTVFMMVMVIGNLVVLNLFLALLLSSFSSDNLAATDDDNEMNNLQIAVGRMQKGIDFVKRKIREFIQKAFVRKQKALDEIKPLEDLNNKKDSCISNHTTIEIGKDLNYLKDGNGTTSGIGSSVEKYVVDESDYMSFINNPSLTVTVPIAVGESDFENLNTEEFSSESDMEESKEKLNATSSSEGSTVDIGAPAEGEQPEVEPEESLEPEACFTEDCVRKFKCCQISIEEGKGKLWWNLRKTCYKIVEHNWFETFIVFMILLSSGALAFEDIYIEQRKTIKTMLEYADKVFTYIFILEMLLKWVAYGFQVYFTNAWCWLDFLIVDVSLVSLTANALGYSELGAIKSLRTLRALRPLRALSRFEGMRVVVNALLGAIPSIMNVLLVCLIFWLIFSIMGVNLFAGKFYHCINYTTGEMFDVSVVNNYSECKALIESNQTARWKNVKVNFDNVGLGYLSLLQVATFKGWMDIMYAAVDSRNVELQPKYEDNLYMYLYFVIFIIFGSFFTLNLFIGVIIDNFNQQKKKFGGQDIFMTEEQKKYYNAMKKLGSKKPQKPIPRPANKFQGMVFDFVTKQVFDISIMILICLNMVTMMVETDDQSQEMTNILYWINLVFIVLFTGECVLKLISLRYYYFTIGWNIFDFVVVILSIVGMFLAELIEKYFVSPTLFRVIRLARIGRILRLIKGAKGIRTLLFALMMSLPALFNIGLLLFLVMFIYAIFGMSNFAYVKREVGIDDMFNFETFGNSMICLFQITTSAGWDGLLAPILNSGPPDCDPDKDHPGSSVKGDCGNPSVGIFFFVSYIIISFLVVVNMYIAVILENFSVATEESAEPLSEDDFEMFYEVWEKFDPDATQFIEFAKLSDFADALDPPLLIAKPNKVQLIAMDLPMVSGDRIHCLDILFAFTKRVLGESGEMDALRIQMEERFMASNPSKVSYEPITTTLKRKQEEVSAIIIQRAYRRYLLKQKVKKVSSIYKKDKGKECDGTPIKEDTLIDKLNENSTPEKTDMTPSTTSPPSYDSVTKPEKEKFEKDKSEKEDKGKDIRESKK
Description: (§4) All of the cell lines tested negative for mycoplasma.
(§5) Inorm(CPD)=(ICPD−Icontrol)/(ITTX−Icontrol).

[3] = molecular target: T2, mNaV1.2 (Mus musculus, UniProt B1AWN6); experiment: as above; format: cell-based
T2 construct: expression vector containing the full-length cDNA coding for specific human and mouse sodium channel α-subunit; expressed in transfected cells
T2 sequence (B1AWN6 whole entry): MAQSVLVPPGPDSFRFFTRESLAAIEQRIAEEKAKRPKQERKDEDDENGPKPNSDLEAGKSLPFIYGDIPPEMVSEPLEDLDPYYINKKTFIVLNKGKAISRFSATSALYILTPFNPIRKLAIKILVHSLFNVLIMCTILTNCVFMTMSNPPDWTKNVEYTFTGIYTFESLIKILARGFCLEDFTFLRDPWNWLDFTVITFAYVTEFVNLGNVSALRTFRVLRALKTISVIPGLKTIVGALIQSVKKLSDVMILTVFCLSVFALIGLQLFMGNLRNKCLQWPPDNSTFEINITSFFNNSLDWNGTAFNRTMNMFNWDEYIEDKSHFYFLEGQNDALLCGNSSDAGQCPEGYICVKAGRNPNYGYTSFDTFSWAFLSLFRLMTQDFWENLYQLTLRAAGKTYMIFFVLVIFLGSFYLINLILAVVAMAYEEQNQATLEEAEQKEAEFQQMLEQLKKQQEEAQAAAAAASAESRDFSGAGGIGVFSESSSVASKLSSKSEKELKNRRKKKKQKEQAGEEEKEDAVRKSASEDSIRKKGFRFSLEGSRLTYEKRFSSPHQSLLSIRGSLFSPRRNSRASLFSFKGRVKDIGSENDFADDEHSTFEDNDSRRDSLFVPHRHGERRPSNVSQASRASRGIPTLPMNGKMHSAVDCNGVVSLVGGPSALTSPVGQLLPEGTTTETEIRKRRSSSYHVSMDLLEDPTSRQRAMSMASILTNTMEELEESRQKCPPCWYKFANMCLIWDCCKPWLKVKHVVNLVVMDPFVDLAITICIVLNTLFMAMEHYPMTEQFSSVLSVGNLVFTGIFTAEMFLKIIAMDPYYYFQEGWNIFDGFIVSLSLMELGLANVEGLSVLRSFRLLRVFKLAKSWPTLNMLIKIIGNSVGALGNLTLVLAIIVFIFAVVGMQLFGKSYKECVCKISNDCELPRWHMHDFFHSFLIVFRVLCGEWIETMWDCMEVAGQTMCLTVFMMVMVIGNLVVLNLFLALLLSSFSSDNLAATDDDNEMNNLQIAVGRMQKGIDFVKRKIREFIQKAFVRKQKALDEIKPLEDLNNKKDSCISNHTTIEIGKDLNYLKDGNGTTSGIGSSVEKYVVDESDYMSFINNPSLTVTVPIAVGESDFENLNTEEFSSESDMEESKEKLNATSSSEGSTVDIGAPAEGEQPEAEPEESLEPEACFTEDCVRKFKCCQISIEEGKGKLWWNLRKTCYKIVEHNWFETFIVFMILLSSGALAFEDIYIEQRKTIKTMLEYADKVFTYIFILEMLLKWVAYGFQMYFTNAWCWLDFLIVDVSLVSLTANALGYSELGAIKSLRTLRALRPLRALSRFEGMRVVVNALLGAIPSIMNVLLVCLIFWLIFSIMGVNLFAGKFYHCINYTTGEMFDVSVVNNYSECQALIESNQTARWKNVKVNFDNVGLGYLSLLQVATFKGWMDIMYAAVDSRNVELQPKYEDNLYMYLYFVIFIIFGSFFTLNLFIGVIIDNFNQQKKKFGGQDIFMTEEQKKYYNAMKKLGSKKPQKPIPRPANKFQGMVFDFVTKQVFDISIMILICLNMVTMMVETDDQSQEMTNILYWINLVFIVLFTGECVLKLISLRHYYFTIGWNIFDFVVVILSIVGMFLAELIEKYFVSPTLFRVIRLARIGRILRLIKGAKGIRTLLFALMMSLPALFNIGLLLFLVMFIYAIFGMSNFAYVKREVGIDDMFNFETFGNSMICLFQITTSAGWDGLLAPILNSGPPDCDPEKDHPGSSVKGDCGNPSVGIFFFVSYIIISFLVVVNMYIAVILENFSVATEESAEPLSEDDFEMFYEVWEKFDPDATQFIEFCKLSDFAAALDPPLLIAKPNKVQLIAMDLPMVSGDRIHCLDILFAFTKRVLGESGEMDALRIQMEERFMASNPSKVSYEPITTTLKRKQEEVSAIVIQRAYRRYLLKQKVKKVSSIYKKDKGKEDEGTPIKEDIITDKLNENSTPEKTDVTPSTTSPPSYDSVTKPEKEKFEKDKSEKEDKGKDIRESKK
Description: as §4, §5

[4] = system: wild-type mice (CF-1); experiment: DC-Maximal electroshock seizure assay (DC-MES); format: in vivo, mouse; conditions: for WT mouse DCMES Chronic, Fraction of animals seizing: day 7, 2 h after 13th dose; for WT mouse DCMES acute, Fraction of animals seizing: 2 h
Experimental: as §1, §2, §3

[5] = Bioanalytical assessment of plasma and brain concentrations after mouse DC-MES assay; format: in vivo; conditions: WT mice; for concentration at 2 h: mouse, po
Experimental: Approximately 0.5 mL of blood was collected from each mouse at the end of the assay via cardiac puncture under deep anesthesia. The blood samples were collected in a syringe and transferred to tubes containing EDTA. Blood was stored at 4 °C until centrifuged within 30 min of collection. Plasma was harvested and placed on dry ice and stored in a freezer set to maintain a temperature of –70°C to –80°C until analysis. Brains were harvested immediately after blood collection and placed on dry ice prior to storage in a freezer set to maintain a temperature of –70°C to –80°C until analysis.
Extraction of plasma samples was carried out by protein precipitation using acetonitrile. Plasma samples (50 µL) were mixed with 50 µL of internal standard (IS) solution in water followed by addition of 10 µL of concentrated ortho-phosphoric acid and 200 µL of acetonitrile. Samples were vortexed for 30 seconds, centrifuged at 13,000 rpm for 20 min, decanted in to a 96-well plate, and further centrifuged at 4000 rpm for 20 min. The samples were analyzed by UHPLC-ESI-MS/MS as described below.
Prior to extraction, pre-weighed whole brains were homogenized in 1:1 acetonitrile/water (v/v) (4 mL per mouse brain) using an IKA T18 ULTRA-TURRAX Homogenizer at the setting of 4 for approximately 2 min. The homogenate was centrifuged at 13,000 rpm for 20 min and 50 µL of the supernatant were treated exactly as described above for plasma samples. […]
Samples were analyzed by UHPLC-ESI MS/MS using a TQ-5500 Sciex triple quadrupole mass spectrometer equipped with a Shimadzu Nexera UHPLC pump and auto-sampler system using an ACE C18 PFP, 2.50 × 50 mm, 1.7 µm particle size column and gradient elution consisting of solvent A (0.1% formic acid in water) and solvent B (0.1% formic acid in acetonitrile) starting at 20% B from 0 min to 0.4 min and then increased to 100% B from 0.4 min to 0.6 min. At 2.0 min, the mobile phase composition was switched back to […] for 1 min. The flow rate used throughout the experiment was […]. […] The UHPLC-ESI MS/MS system was controlled by Analyst 1.6.
Sample concentrations were determined using a linear calibration function, weighted 1 /X, generated by the regression of analyte to IS peak area ratios in the standard samples to their respective concentrations. Acceptance criteria for the analytical run required that the back calculated values of the standards and the QC samples fell within ±20% of their nominal values, except for the lowest standard or lower limit of quantitation (LLOQ), for which the acceptance criterion was ±25%. At least 6 out of 12 standard points had to show back-calculated values within ±20% of their nominal concentrations for the calibration to be accepted. At least three QC samples, one at each level, had to show back-calculated values within ±20% of their nominal concentrations for the whole sample batch to be valid.

[6] = 3 mg/kg PO every 12 hr, day 7, 2 h after 13th dose, 3 mg/kg
[7] = 5 mg/kg PO every 12 hr, day 7, 2 h after 13th dose, 5 mg/kg
[8] = 10 mg/kg PO single dose, 2 h, 10 mg/kg

Cc1cc(S(=O)(=O)Nc2cscn2)c(F)cc1N(C)[C@H]1CCN(Cc2ccccc2)C1 [NBI-921352]
EC50 ([1]; WT rat DC-MES (oral; phenytoin i.p.), read-out: plasma EC50): 150 nM
EC50 ([1]; WT rat DC-MES, 2 hr post dose (oral; phenytoin i.p.), read-out: brain EC50): 37 nM
ED50 ([1]; WT rat DC-MES, oral, 2 hr, read-out: ED50, prevention of GTC with hindlimb extension): 3.7 mg/kg
WT rat DC-MES, fraction of animals seizing ([1]; 1 mg/kg PO every 12 hr, day 7, 2 hr after 13th dose): 0.4286
WT rat DC-MES, fraction of animals seizing ([1]; 1 mg/kg PO single dose, 2 hr, 1 mg/kg): 0.75 and 1
WT rat DC-MES, fraction of animals seizing ([1]; 3 mg/kg PO every 12 hr, day 7, 2 hr after 13th dose): 0.25
WT rat DC-MES, fraction of animals seizing ([1]; 3 mg/kg PO single dose, 2 hr, 3 mg/kg): 0.6 and 0.5714 and 0.4
WT rat DC-MES, fraction of animals seizing ([1]; 10 mg/kg PO single dose, 2 hr): 0.1429
WT rat DC-MES, fraction of animals seizing ([1]; 30 mg/kg PO single dose, 2 hr): 0
hNav1.2 current (352)/(Vehicle), mean ([2]; -4 Log M): 0.88
hNav1.2 current (352)/(Vehicle), mean ([2]; -4.47713 Log M): 0.78
hNav1.2 current (352)/(Vehicle), mean ([2]; -4.95425 Log M): 0.6
hNav1.2 current (352)/(Vehicle), mean ([2]; -5 Log M): 0.66
hNav1.2 current (352)/(Vehicle), mean ([2]; -5.43133 Log M): 0.42
hNav1.2 current (352)/(Vehicle), mean ([2]; -5.47716 Log M): 0.44
hNav1.2 current (352)/(Vehicle), mean ([2]; -5.90833 Log M): 0.21
hNav1.2 current (352)/(Vehicle), mean ([2]; -5.95429 Log M): 0.14
hNav1.2 current (352)/(Vehicle), mean ([2]; -6.3851 Log M): 0.11
hNav1.2 current (352)/(Vehicle), mean ([2]; -6.86328 Log M): 0.04
hNav1.2 current (352)/(Vehicle), mean ([2]; -6.91009 Log M): 0.03
hNav1.2 current (352)/(Vehicle), mean ([2]; -7.33724 Log M): 0.01
hNav1.2 current (352)/(Vehicle), mean ([2]; -7.38722 Log M): 0
hNav1.2 current (352)/(Vehicle), mean ([2]; -7.85387 Log M): 0.01
hNav1.2 current (352)/(Vehicle), mean ([2]; -8.30103 Log M): 0.01
IC50 ([2]; Vh -45 mV, HEK-293): 6900 nM
mNaV1.2 current (352)/(Vehicle) ([3]; -4.22185 Log M): 0.86
mNaV1.2 current (352)/(Vehicle) ([3]; -4.69897 Log M): 0.58
mNaV1.2 current (352)/(Vehicle) ([3]; -5.17607 Log M): 0.39
mNaV1.2 current (352)/(Vehicle) ([3]; -5.65326 Log M): 0.19
mNaV1.2 current (352)/(Vehicle) ([3]; -6.13018 Log M): 0.14
mNaV1.2 current (352)/(Vehicle) ([3]; -6.6073 Log M): 0.04
mNaV1.2 current (352)/(Vehicle) ([3]; -7.08619 Log M): 0.08
mNaV1.2 current (352)/(Vehicle) ([3]; -7.56864 Log M): 0.05
IC50 ([3]; Vh -45 mV): 11000 nM
WT mouse DCMES Chronic, Fraction of animals seizing ([4]; 3 mg/kg PO every 12 hr): 0.4 and 0.25
WT mouse DCMES acute, Fraction of animals seizing ([4]; 3 mg/kg PO single dose): 0.8 and 0.75 and 0.7143
WT mouse DCMES Chronic, Fraction of animals seizing ([4]; 5 mg/kg PO every 12 hr): 0.25 and 0.2857
WT mouse DCMES acute, Fraction of animals seizing ([4]; 5 mg/kg PO single dose): 0.625 and 0.7143
WT mouse DCMES Chronic, Fraction of animals seizing ([4]; 10 mg/kg PO every 12 hr): 0.2
WT mouse DCMES acute, Fraction of animals seizing ([4]; 10 mg/kg PO single dose): 0.6 and 0.4286 and 0.6667
WT mouse DCMES acute, Fraction of animals seizing ([4]; 30 mg/kg PO single dose): 0.3333 and 0.4 and 0.4286
WT mouse DCMES acute, Fraction of animals seizing ([4]; 100 mg/kg PO single dose): 0.2857
WT mouse DCMES acute, Fraction of animals seizing ([4]; 200 mg/kg PO single dose): 0.1667
EC50 ([4]; WT mouse DC-MES, 2 hr post dose (oral; phenytoin i.p.), read-out: brain EC50): 200 nM
ED50 ([4]; WT mouse DC-MES, oral, 2 hr, read-out: ED50, prevention of GTC with hindlimb extension): 23 mg/kg
EC50 ([4]; WT mouse DC-MES, read-out: plasma EC50): 520 nM
Mean [Brain] [5, 6]: 0.01911 µM
Mean [Plasma] [5, 6]: 0.01423 µM
Mean [Plasma] ([5]; 3 mg/kg PO single dose, 2 h, 3 mg/kg): 0.01728 µM and 0.009122 µM
Mean [Brain] [5, 7]: 0.02064 µM
Mean [Plasma] [5, 7]: 0.03091 µM
Mean [Plasma] ([5]; 5 mg/kg PO single dose, 2 h, 5 mg/kg): 0.0212 µM
Mean [Brain] [5, 8]: 0.05777 µM and 0.08031 µM
Mean [Plasma] [5, 8]: 0.1016 µM and 0.1012 µM
concentration at 2 h ([5]; brain, 3 mg/kg, 3 mg/kg PO every 12 hr, day 7, 2 h after 13th dose, read-out: Mean [Brain]): 12.8 nM
concentration at 2 h ([5]; brain, 5 mg/kg, 5 mg/kg PO every 12 hr, day 7, 2 h after 13th dose, read-out: Mean [Brain]): 37.7 nM
concentration at 2 h ([5]; brain, 10 mg/kg, 10 mg/kg PO every 12 hr, day 7, 2 h after 13th dose, read-out: Mean [Brain]): 37.7 nM
concentration at 2 h ([5]; brain, 10 mg/kg, 10 mg/kg PO single dose, 2 h, read-out: Mean [Brain]): 51.9 nM
concentration at 2 h ([5]; brain, 100 mg/kg, 100 mg/kg PO single dose, 2 h, read-out: Mean [Brain]): 646 nM
concentration at 2 h ([5]; brain, 200 mg/kg, 200 mg/kg PO single dose, 2 h, read-out: Mean [Brain]): 3880 nM
concentration at 2 h ([5]; plasma, 3 mg/kg, 3 mg/kg PO every 12 hr, day 7, 2 h after 13th dose, read-out: Mean [Plasma]): 17.7 nM
concentration at 2 h ([5]; plasma, 3 mg/kg, 3 mg/kg PO single dose, 2 h, read-out: Mean [Plasma]): 11.2 nM
concentration at 2 h ([5]; plasma, 5 mg/kg, 5 mg/kg PO every 12 hr, day 7, 2 h after 13th dose, read-out: Mean [Plasma]): 43 nM
concentration at 2 h ([5]; plasma, 5 mg/kg, 5 mg/kg PO single dose, 2 h, read-out: Mean [Plasma]): 36.8 nM
concentration at 2 h ([5]; plasma, 10 mg/kg, 10 mg/kg PO every 12 hr, day 7, 2 h after 13th dose, read-out: Mean [Plasma]): 151 nM
concentration at 2 h ([5]; plasma, 10 mg/kg, 10 mg/kg PO single dose, 2 h, read-out: Mean [Plasma]): 94.2 nM
concentration at 2 h ([5]; plasma, 100 mg/kg, 100 mg/kg PO single dose, 2 h, read-out: Mean [Plasma]): 3330 nM
concentration at 2 h ([5]; plasma, 200 mg/kg, 200 mg/kg PO single dose, 2 h, read-out: Mean [Plasma]): 34700 nM
